Like-named read-outs stand apart in the source and are kept apart here.
Key:
Assay type in all cases: biochemical
human cathepsin L = biological target: T1, human cathepsin L (Homo sapiens, UniProt P07711); experiment: Cathepsin L inhibition, fluorogenic substrate Cbz-Phe-Arg-AMC, progress curve method; conditions: Table 2, Inhibition of Cathepsins (Ki in nM); enzyme from human liver tissue, 5 μM substrate, pH 5.5; read-out: hCat L IC50
T1 construct: enzyme prepared from human liver tissue; from tissue; host or cells: human liver
T1 sequence (P07711 114-288 limits assumed): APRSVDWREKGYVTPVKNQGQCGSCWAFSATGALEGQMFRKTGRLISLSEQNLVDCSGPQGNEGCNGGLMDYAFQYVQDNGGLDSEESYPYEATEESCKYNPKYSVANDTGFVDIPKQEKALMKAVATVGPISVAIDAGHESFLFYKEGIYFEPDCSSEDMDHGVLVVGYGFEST
T1 sequence (P07711 292-333 limits assumed): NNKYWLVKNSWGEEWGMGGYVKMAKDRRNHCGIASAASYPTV
Method: (§1) All assays for cathepsin K were carried out with human and rat recombinant enzyme. Assays for cathepsins S & V were also carried out with human recombinant enzyme. Assays for human cathepsins B, H, and L were carried out with enzyme prepared from human liver tissue. Standard assay conditions for the determination of kinetic constants used a fluorogenic peptide substrate, typically (5S,8S)-13-amino-5-benzyl-13-imino-3-methylene-N-(4-methyl-2-oxo-2H-chromen-7-yl)-6-oxo-1-phenyl-2-oxa-4,7,12-triazatridecane-8-carboxamide (Cbz-Phe-Arg-AMC), and were determined in 100 mM sodium acetate at pH 5.5 containing 10 mM dithiothreitol and 120 mM sodium chloride. […]
(§2) All assays contained 10% dimethyl sulfoxide. […] Product fluorescence (excitation at 360 nm; emission at 440 nm, (except cathepsin H which used excitation at 340 nm; emission at 420 nm)) was monitored with a PerSeptive Biosystems Cytofluor II fluorescence plate reader. […]
(§3) Potential inhibitors were evaluated using the progress curve method. […] For those compounds whose progress curves were linear, the enzymatic activity (RATE) was plotted against the concentration of test compound, including inhibitor concentration of zero ([I]=0), and the IC50 determined from a fit of equation 1 to the data, RATE=Vmax/(1+([I]/IC50)) (1) where Vmax is the best fit estimate of the maximal enzymatic activity. […]

human cathepsin S = human cathepsin S (Homo sapiens, UniProt P25774); experiment: Cathepsin S inhibition, fluorogenic substrate Cbz-Val-Val-Arg-AMC, progress curve method; conditions: Table 2, Inhibition of Cathepsins (Ki in nM); recombinant human enzyme, 10 μM substrate, pH 5.5; read-out: hCat S IC50
Sequence of human cathepsin S (P25774 115-331): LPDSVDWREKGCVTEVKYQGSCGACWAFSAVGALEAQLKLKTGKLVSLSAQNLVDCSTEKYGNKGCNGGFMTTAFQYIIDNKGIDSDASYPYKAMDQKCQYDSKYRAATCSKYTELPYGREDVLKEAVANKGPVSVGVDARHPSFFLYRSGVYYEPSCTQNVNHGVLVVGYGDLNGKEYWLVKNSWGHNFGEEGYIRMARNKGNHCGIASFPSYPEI
Method: as §1, §2, §3

human cathepsin B = biological target: T2, human cathepsin B (Homo sapiens, UniProt P07858); experiment: Cathepsin B inhibition, fluorogenic substrate Cbz-Phe-Arg-AMC, progress curve method; conditions: Table 2, Inhibition of Cathepsins (Ki in nM); enzyme from human liver tissue, 10 μM substrate, pH 5.5; read-out: hCat B IC50
T2 construct: enzyme prepared from human liver tissue; from tissue; host or cells: human liver
Method: as §1, §2, §3

human cathepsin K = biological target: T3, human cathepsin K (Homo sapiens, UniProt P43235); experiment: Cathepsin K inhibition, fluorogenic substrate Cbz-Phe-Arg-AMC, progress curve method; conditions: recombinant human enzyme, 10 μM substrate, read-out: hCat K IC50
T3 construct: The proform of cathepsin K was converted to mature cathepsin K by brief exposure to pH 4; made in house; host or cells: baculovirus; Trichoplusia ni High Five cells (virus raised in Sf-9)
T3 sequence (P43235 115-329): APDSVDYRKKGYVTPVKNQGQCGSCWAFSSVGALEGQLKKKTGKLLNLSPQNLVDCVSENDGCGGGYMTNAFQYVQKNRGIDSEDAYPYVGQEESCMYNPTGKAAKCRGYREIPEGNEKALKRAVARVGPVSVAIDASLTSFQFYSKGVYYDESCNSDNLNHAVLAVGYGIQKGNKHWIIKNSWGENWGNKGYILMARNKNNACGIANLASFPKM
Method: All assays for cathepsin K were carried out with human and rat recombinant enzyme. Assays for cathepsins S & V were also carried out with human recombinant enzyme. Assays for human cathepsins B, H, and L were carried out with enzyme prepared from human liver tissue. […] A stock substrate solution of Cbz-Phe-Arg-AMC was prepared at a concentration of 50 mM in dimethyl sulfoxide. This substrate was diluted into the assay for a final substrate concentration of 10 μM in the rat cathepsin K, human cathepsin K, and human cathepsin B assays; a final substrate concentration of 5 μM in the human cathepsin L assay; and a final substrate concentration of 2 μM in the human cathepsin V assay.
All assays contained 10% dimethyl sulfoxide. […] All assays were conducted at 30° C. Product fluorescence (excitation at 360 nm; emission at 440 nm, (except cathepsin H which used excitation at 340 nm; emission at 420 nm)) was monitored with a PerSeptive Biosystems Cytofluor II fluorescence plate reader. Product progress curves were generated over 2.3 h monitoring the formation of 7-amino-4-methylcoumarin product (or β-naphthalamide for cathepsin H).
Human and Rat Cathepsin K:
The cells continued to grow for 72 h post-infection, before the virus was harvested by centrifugation at 1400×g for 30 min.
One and one-half liters of Trichoplusia ni (T. ni) High Five (TM) cells [JRH Biosciences, Woodland, Calif. […] The cells were grown for 24 h at 28° C., 50 RPM, and 50% dissolved oxygen. […] Media were separated from cells at a rate of 1 L/min using the Centritech 100 (TM) continuous-flow centrifuge (DuPont) operating at 200×g.
Protein Purification: Media (human and rat) were filtered through a Whatman 3 filter, and then loaded onto a 25 mL Poros HS II (26 mm×47 mm) cation exchange column equilibrated in 25 mM sodium acetate at pH 5.5 (equilibration buffer). The column was washed until the absorbance reached the baseline value, and then the protein was eluted with a linear gradient from 0–2 M sodium chloride in the equilibration buffer. Column fractions were analyzed by SDS-PAGE, N-terminal sequencing, and mass spectrometry. Fractions containing the proform of cathepsin K were pooled and frozen at −80° C. The proform was concentrated in an Amicon Centriprep 10 and fractionated with a Superdex 75 column (26 mm×600 mm, Pharmacia) equilibrated in 400 mM sodium chloride, 25 mM sodium acetate at pH 5.5.
Cathepsin K Activation: The proform of cathepsin K was converted to mature cathepsin K by brief exposure to pH 4 in the presence of 5 mM L-cysteine. Typically, 5 mM L-cysteine was added to 10 mL of approximately 1 mg/mL procathepsin K. One mL of this solution was diluted ten-fold into 450 mM sodium acetate at pH 4.0 containing 5 mM L-cysteine. This solution was reacted at 23° C. for 2 min before neutralization with 2 mL 1.8 M sodium acetate at pH 6.0. The neutralized sample was added to the remaining 9 mL of procathepsin K. The mixture was incubated at 4° C. for 2–3 days. The activated cathepsin K was chromatographed on a Poros HS II column as described above.
Potential inhibitors were evaluated using the progress curve method. Assays were carried out in the presence of variable concentrations of test compound. Reactions were initiated by addition of buffered solutions of inhibitor and substrate to enzyme. Data analysis was conducted according to one of two procedures depending on the appearance of the progress curves in the presence of inhibitors. […] Ki values were calculated from IC50 values using equation 2 assuming a competitive model.

human cathepsin V = human cathepsin V (Homo sapiens, UniProt O60911); experiment: Cathepsin V inhibition, fluorogenic substrate Cbz-Phe-Arg-AMC, progress curve method; conditions: Table 2, Inhibition of Cathepsins (Ki in nM); recombinant human enzyme, 2 μM substrate, pH 5.5; read-out: hCat V IC50
Sequence of human cathepsin V (O60911 114-334): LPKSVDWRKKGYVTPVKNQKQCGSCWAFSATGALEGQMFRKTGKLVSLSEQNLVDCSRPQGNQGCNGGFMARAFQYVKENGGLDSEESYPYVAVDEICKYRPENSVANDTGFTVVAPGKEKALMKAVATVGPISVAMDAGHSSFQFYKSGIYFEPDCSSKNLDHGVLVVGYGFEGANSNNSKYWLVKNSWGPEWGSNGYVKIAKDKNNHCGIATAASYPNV
Method: as §1, §2, §3

[1] = Table 1, Inhibition of Cathepsin K (Ki in nM), pH 5.5, 30° C.
[2] = Table 2, Inhibition of Cathepsins (Ki in nM), pH 5.5

Row | IC50 (human cathepsin L) [nM] | IC50 (human cathepsin S) [nM] | IC50 (human cathepsin B) [nM] | IC50 (human cathepsin K; [1]) [nM] | IC50 (human cathepsin K; [2]) [nM] | IC50 (human cathepsin V) [nM] | Structure (SMILES)
1 | 1000 to 10000 | 10 to 100 | 1000 to 10000 | 100 to 1000 | 100 to 1000 | 100 to 1000 | CCCC[C@H](NC(=O)O[C@@H]1CN(c2nc3ccccc3s2)CC1(C)C)C(=O)CNS(=O)(=O)c1ccccn1 [Example 6, (3S)-1-(1,3-benzothiazol-2-yl)-4,4-dimethylpyrrolidinyl (1S)-1-{[(2-pyridinylsulfonyl)amino]acetyl}pentylcarbamate]
2 | 10 to 100 | < 10 | 10 to 100 | < 10 | < 10 | < 10 | C[C@H](NC(=O)O[C@H](Cn1cnc2cc(Cl)c(Cl)cc21)C(C)(C)C)C(=O)CNS(=O)(=O)c1ccccn1 [Example 16, (1S)-1-[(5,6-dichloro-1H-benzimidazol-1-yl)methyl]-2,2-dimethylpropyl (1S)-1-methyl-2-oxo-3-[(2-pyridinylsulfonyl)amino]propylcarbamate]
